Measured values from publication PMC8294059, “Identification and Immune Assessment of T Cell Epitopes in Five Plasmodium falciparum Blood Stage Antigens to Facilitate Vaccine Candidate Selection and Optimization” (Frontiers in Immunology, 2021).
Where two headings read alike, the source gives them in different places. Where a SMILES comes first, the peptide text is derived from it.

What was measured:
HLA-DRB1*1501 = molecular target: T1, HLA-DRB1*1501 (Homo sapiens, UniProt P01903+P01911); experiment: biochemical; format: binding
T1 construct: purchased
Method: (§1) The binding assay conducted by EpiVax yields an indirect measure of peptide-MHC affinity as it utilizes a competition assay format per the methodology described in Steere et al. ([35]). […] Post incubation, the mixtures are moved to a 96-well plate coated with anti-HLA-DR antibody to capture HLA-peptide complexes. Time-resolved fluorescence measurement of the bound labeled reference peptide complex present in each mixture is detected with a europium-linked probe via fluorescent spectrophotometry using a SpectraMax M5 system. HLA binding affinity of each test peptide is expressed as the percent inhibition of reference peptide binding. Percent inhibition values (across the test peptide titration range) are used to calculate the half maximal inhibitory concentration (IC50) of each test peptide. For these studies, test peptides were assessed using a range of final concentrations from 100,000 nM to 100 nM. The panel of commercially-available HLA-DRB1 allele monomers used includes: *0101, *0301, *0401, *0701, *0801, *1101, *1301 and *1501. EpiVax established HLA-DRB1 binding affinity cutoffs were used to rank the IC50 values.
(§2) In vitro HLA binding assays (step 2 of workflow shown in Figure 1 ) were carried out with the synthesized peptides to verify the EpiMatrix outputs and provide a measure of accuracy for comparing in silico-predicted HLA-DRB1 allele binding to laboratory assessments of HLA-DRB1 allele binding. These assessments were conducted using a competition assay format whereby IC50 values were calculated based on the ability of the test peptide to compete with a labeled, high binding affinity reference peptide for HLA-DRB1 molecule binding. Sequences for the high affinity reference peptides and the negative control peptide, known not to bind any of the HLA-DRB1 molecules, are provided in Table S18 .

HLA-DRB1*0101 = molecular target: T2, HLA-DRB1*0101 (Homo sapiens, UniProt P01903+P01911, A100R/D57E/F55L/F60I/F76Y/I96L/L162R/M171V/P40L/Q125E/R42F/V115G/Y59C); experiment: biochemical; format: binding
T2 construct: purchased
Method: as §1, §2

HLA-DRB1*1301 = HLA-DRB1*1301 (Homo sapiens, UniProt P01903+P01911, A100E/A169T/K41T/L162R/M171V/P40S/Q125H/Q178H/Q39Y/Q99D/R42S/S66N/T262R/W38E/Y61H); experiment: biochemical; format: binding; details: read-out: DRB1*1301 IC50
Method: as §1, §2

HLA-DRB1*0701 = HLA-DRB1*0701 (Homo sapiens, UniProt P01903+P01911, A100R/A102G/A103Q/D57E/D86V/E43K/F76Y/K127E/L162R/M171V/P40G/Q125H/Q99D/R33Q/R42Y/R54Q/S133A/S66F/T210M/V115G/Y107V/Y59L/Y89S); experiment: biochemical; format: binding
Method: as §1, §2

HLA-DRB1*0801 = HLA-DRB1*0801 (Homo sapiens, UniProt P01903+P01911, A100R/A103L/A169T/D86S/F76Y/H45Y/I96F/K41T/L162R/M171V/P40S/Q125H/Q178H/Q39Y/Q99D/R218S/R42G/S66Y/V115G/W38E); experiment: biochemical; format: binding
Method: as §1, §2

HLA-A*0201 = HLA-A*0201 (Homo sapiens, UniProt P04439, D140Y/D185E/D98H/E176V/E277Q/G131W/G231S/I119V/I121R/I166T/I218V/L300P/L318F/N151K/N90K/P208A/P217A/Q86G/Q94H/R138H/R169H/T345S); experiment: In vitro class I HLA binding assay (fluorescence polarization competition); details: allele A*0201; fluorescence polarization competition; read-out: IC50 (nM), in vitro HLA binding affinity
Method: A cell-free class I HLA binding assay that allows for in vitro quantification of peptide-HLA binding affinity in a competition format was used. In this assay, a fluorescently labeled, high binding, control peptide is loaded onto 384-well ½-area plates along with unlabeled experimental peptides. To remove endogenous peptides and render the HLA A and B molecules receptive to binding, HLA is heated at 53°C for 15 minutes and immediately added to the assay. The mixture is then allowed to stand for three days. Once the mixture has reached steady equilibrium (at 72 hours), displacement of the high binding control peptide is measured through fluorescence polarization. Binding of experimental peptides is expressed as the percent inhibition of the labeled control peptide (experimental fluorescence / control fluorescence, multiplied by 100). The percent inhibition values for each experimental peptide (across a range of molar concentrations) are used to calculate the concentration which inhibits 50% of the labeled control peptide’s specific binding. This value is referred to as the peptide’s IC50.

HLA-DRB1*1101 = HLA-DRB1*1101 (Homo sapiens, UniProt P01903+P01911, A100R/A169T/A87E/I96F/K41T/L162R/M171V/P40S/Q125H/Q178H/Q39Y/Q99D/R42S/S66Y/T262R/V115G/W38E); experiment: biochemical; format: binding; details: binding inhibition assay; NB = non-binder (no dose-dependent inhibition); read-out: DRB1*1101 IC50
Method: as §1, §2

[1] = binding inhibition assay, NB = non-binder (no dose-dependent inhibition), read-out: DRB1*1501 IC50
[2] = binding inhibition assay, NB = non-binder (no dose-dependent inhibition), read-out: DRB1*0101 IC50
[3] = binding inhibition assay, NB = non-binder (no dose-dependent inhibition)
[4] = binding inhibition assay, NB = non-binder (no dose-dependent inhibition), read-out: DRB1*0701 IC50
[5] = binding inhibition assay, NB = non-binder (no dose-dependent inhibition), read-out: DRB1*0801 IC50

Sequence of HLA-DRB1*1101 (P01903 26-254 limits assumed, other chains not shown): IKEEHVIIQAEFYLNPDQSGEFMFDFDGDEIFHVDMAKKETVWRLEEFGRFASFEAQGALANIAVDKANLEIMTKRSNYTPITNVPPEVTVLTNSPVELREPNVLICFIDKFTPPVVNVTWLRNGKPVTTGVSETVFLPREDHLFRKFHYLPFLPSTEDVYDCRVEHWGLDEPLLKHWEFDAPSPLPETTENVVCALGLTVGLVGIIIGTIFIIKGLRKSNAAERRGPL

SMILES | IC50 (HLA-DRB1*1501; [1]) | IC50 (HLA-DRB1*0101; [2]) | IC50 (HLA-DRB1*1301; [3]) | IC50 (HLA-DRB1*0701; [4]) | IC50 (HLA-DRB1*1101) | IC50 (HLA-DRB1*0801; [5]) | also measured
CC[C@H](C)[C@H](NC(=O)[C@H](CCSC)NC(=O)[C@H](CO)NC(=O)[C@H](C)N)C(=O)N[C@@H](CCCCN)C(=O)N[C@@H](CO)C(=O)N[C@@H](C)C(=O)N[C@@H](Cc1ccccc1)C(=O)N[C@@H](CC(C)C)C(=O)N1CCC[C@H]1C(=O)N[C@H](C(=O)NCC(=O)N[C@@H](C)C(=O)N[C@@H](Cc1ccccc1)C(=O)N[C@@H](CCCCN)C(N)=O)[C@@H](C)O [AMA1_006B] (H-ASMIKSAFLPTGAFK-NH2) | 14.5 µM | 3.22 µM | > 100 µM | 1.52 µM | – | – | –
CC[C@H](C)[C@H](NC(=O)[C@H](CCSC)NC(=O)[C@H](CO)NC(=O)[C@H](C)NC(=O)[C@H](CC(N)=O)NC(=O)[C@H](CCCCN)NC(=O)[C@H](CC(N)=O)NC(=O)[C@H](CCCCN)NC(=O)[C@H](Cc1ccccc1)NC(=O)CNC(=O)[C@H](CCC(=O)O)NC(=O)[C@H](CCCCN)NC(C)=O)C(=O)N[C@@H](CCCCN)C(=O)N[C@@H](CO)C(=O)N[C@@H](C)C(=O)N[C@@H](Cc1ccccc1)C(=O)N[C@@H](CC(C)C)C(=O)N1CCC[C@H]1C(=O)N[C@H](C(=O)NCC(=O)N[C@@H](C)C(=O)N[C@@H](Cc1ccccc1)C(=O)N[C@@H](CCCCN)C(N)=O)[C@@H](C)O [AMA1_006C] (Ac-KEGFKNKNASMIKSAFLPTGAFK-NH2) | – | – | – | – | – | – | IC50 (HLA-DRB1*1501): 2.04 µM; IC50 (HLA-DRB1*0801): 50.4 µM; IC50 (HLA-DRB1*0101): 1.2 µM; IC50 (HLA-DRB1*1301): > 100 µM; IC50 (HLA-DRB1*0701): 1.29 µM
CC[C@H](C)[C@H](NC(=O)[C@H](CO)NC(=O)[C@H](CO)NC(=O)[C@H](Cc1ccccc1)NC(=O)[C@H](CC(C)C)NC(=O)[C@@H](N)CC(N)=O)C(=O)N[C@@H](CCC(=O)O)C(=O)N[C@H](C(=O)N[C@H](C(=O)O)C(C)C)[C@@H](C)CC [AMA1_092] (H-NLFSSIEIV-OH) | – | – | – | – | – | – | IC50 (HLA-A*0201): 1550 nM
CSCC[C@H](NC(=O)[C@H](Cc1ccc(O)cc1)NC(=O)[C@H](CCC(=O)O)NC(=O)[C@@H](NC(=O)[C@H](Cc1c[nH]c2ccccc12)NC(=O)[C@@H]1CCCN1C(=O)[C@H](CC(N)=O)NC(=O)CNC(=O)[C@H](CCSC)NC(=O)[C@@H](N)Cc1ccc(O)cc1)[C@@H](C)O)C(=O)O [AMA1_105] (H-YMGNPWTEYM-OH) | – | – | – | – | – | – | IC50 (HLA-A*0201): 21400 nM
CC[C@H](C)[C@H](NC(=O)[C@H](CC(N)=O)NC(=O)[C@H](CC(N)=O)NC(=O)[C@H](CCCCN)NC(=O)[C@H](Cc1c[nH]cn1)NC(=O)[C@H](CCC(=O)O)NC(=O)[C@H](CO)NC(=O)[C@H](CC(C)C)NC(=O)[C@H](CCSC)NC(=O)[C@H](C)NC(=O)[C@H](CCC(=O)O)NC(=O)[C@H](Cc1c[nH]c2ccccc12)NC(=O)[C@H](CC(C)C)NC(=O)[C@H](CCCCN)NC(=O)[C@H](CCC(=O)O)NC(C)=O)C(=O)N[C@@H](CC(N)=O)C(=O)N[C@@H](CC(N)=O)C(N)=O [EBA175_008] (Ac-EKLWEAMLSEHKNNINN-NH2) | 80.6 µM | 5.61 µM | > 100 µM | – | > 100 µM | – | –
CC[C@H](C)[C@H](NC(C)=O)C(=O)N[C@@H](CC(C)C)C(=O)N[C@@H](C)C(=O)N[C@H](C(=O)N[C@@H](C)C(=O)N[C@H](C(=O)N[C@@H](Cc1ccc(O)cc1)C(=O)N[C@@H](CCC(=O)O)C(=O)N[C@@H](CO)C(=O)N[C@@H](CCCNC(=N)N)C(=O)N[C@H](C(=O)N[C@@H](CC(C)C)C(=O)N[C@@H](CCCCN)C(=O)N[C@@H](CCCNC(=N)N)C(=O)N[C@@H](CCCCN)C(=O)N[C@@H](Cc1ccc(O)cc1)C(=O)N[C@@H](CCCCN)C(=O)N[C@@H](CC(N)=O)C(=O)N[C@@H](CCCCN)C(=O)N[C@@H](CC(=O)O)C(=O)N[C@@H](CC(=O)O)C(=O)N[C@@H](CCCCN)C(=O)N[C@@H](CCC(=O)O)C(N)=O)[C@@H](C)CC)[C@@H](C)CC)[C@@H](C)CC [EBA175_010] (Ac-ILAIAIYESRILKRKYKNKDDKE-NH2) | 0.035 µM | 0.27 µM | 4.41 µM | 6.27 µM | 44.2 µM | 17.6 µM | –
CC[C@H](C)[C@H](NC(=O)[C@H](CO)NC(=O)[C@H](CCCCN)NC(=O)[C@H](Cc1ccccc1)NC(=O)[C@H](CCC(=O)O)NC(=O)[C@H](CO)NC(=O)[C@H](Cc1ccc(O)cc1)NC(=O)[C@H](CCSC)NC(=O)[C@H](CCCCN)NC(=O)[C@H](Cc1ccc(O)cc1)NC(=O)[C@H](CC(N)=O)NC(=O)[C@H](CC(N)=O)NC(=O)CNC(=O)[C@H](CCCCN)NC(=O)[C@H](CCC(N)=O)NC(=O)[C@H](Cc1ccc(O)cc1)NC(=O)[C@H](CCC(=O)O)NC(=O)[C@H](CCC(N)=O)NC(=O)[C@H](Cc1ccc(O)cc1)NC(C)=O)C(=O)N[C@@H](CCCCN)C(N)=O [EBA175_012] (Ac-YQEYQKGNNYKMYSEFKSIK-NH2) | 29.4 µM | 0.226 µM | – | 14 µM | – | 33.2 µM | –
CC[C@H](C)[C@H](NC(=O)[C@H](CC(C)C)NC(=O)[C@H](CCCCN)NC(=O)[C@H](CCCCN)NC(=O)[C@H](CCCCN)NC(=O)[C@H](CCCCN)NC(=O)[C@@H](NC(=O)[C@H](CC(N)=O)NC(=O)[C@H](Cc1ccc(O)cc1)NC(=O)[C@H](CCC(=O)O)NC(=O)[C@H](CC(=O)O)NC(C)=O)[C@@H](C)O)C(=O)N[C@@H](CCCCN)C(=O)N[C@@H](CS)C(=O)N[C@H](C(=O)N[C@@H](CCCCN)C(=O)N[C@@H](CC(N)=O)C(=O)N[C@@H](Cc1c[nH]cn1)C(=O)N[C@@H](CCC(=O)O)C(=O)N[C@@H](CC(N)=O)C(=O)N[C@@H](CC(=O)O)C(=O)N[C@@H](Cc1ccccc1)C(=O)N[C@@H](CC(N)=O)C(N)=O)[C@@H](C)CC [RH5_008] (Ac-DEYNTKKKKLIKCIKNHENDFN-NH2) | 5.14 µM | 1 µM | – | – | – | 2.6 µM | –
CC[C@H](C)[C@H](NC(=O)[C@H](Cc1ccc(O)cc1)NC(=O)[C@H](CCC(=O)O)NC(=O)[C@H](CC(=O)O)NC(=O)[C@H](Cc1ccc(O)cc1)NC(C)=O)C(=O)N[C@@H](Cc1c[nH]cn1)C(=O)N[C@@H](CCCCN)C(=O)N[C@@H](CC(C)C)C(=O)N[C@H](C(=O)N[C@@H](CC(C)C)C(=O)N[C@@H](CO)C(=O)N[C@H](C(=O)N[C@@H](CCCCN)C(=O)N[C@@H](CO)C(=O)N[C@@H](CCCCN)C(=O)N[C@@H](CC(N)=O)C(=O)N[C@@H](CC(C)C)C(=O)N[C@@H](CC(N)=O)C(=O)N[C@@H](CCCCN)C(=O)N[C@@H](CC(=O)O)C(=O)N[C@@H](CC(C)C)C(=O)N[C@@H](CO)C(N)=O)C(C)C)[C@@H](C)CC [RH5_009] (Ac-YDEYIHKLILSVKSKNLNKDLS-NH2) | 0.01 µM | 0.043 µM | 88.8 µM | 0.381 µM | 10.5 µM | 6.46 µM | –
